The target in one test is T1, MMP-2 (Homo sapiens, UniProt P08253).
T1 sequence (P08253 110-660): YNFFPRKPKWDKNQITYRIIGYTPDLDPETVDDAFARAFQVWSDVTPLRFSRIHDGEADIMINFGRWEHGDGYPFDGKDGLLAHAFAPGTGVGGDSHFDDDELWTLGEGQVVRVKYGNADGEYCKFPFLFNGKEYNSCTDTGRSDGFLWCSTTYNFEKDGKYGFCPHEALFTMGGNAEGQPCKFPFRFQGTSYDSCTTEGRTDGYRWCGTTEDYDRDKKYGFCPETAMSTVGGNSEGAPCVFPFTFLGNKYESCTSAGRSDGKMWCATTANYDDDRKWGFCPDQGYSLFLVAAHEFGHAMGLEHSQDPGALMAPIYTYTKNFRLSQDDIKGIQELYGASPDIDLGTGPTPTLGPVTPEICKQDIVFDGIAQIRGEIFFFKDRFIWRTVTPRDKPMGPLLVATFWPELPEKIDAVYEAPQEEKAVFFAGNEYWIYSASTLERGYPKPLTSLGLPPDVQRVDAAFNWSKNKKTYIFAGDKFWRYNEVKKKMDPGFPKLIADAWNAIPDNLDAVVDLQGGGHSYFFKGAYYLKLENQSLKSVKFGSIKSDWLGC
In words: biochemical.

For another test, the target named is T2, MMP-9 (Homo sapiens, UniProt P14780).
T2 construct: made in house
T2 sequence (P14780 107-707 limits assumed): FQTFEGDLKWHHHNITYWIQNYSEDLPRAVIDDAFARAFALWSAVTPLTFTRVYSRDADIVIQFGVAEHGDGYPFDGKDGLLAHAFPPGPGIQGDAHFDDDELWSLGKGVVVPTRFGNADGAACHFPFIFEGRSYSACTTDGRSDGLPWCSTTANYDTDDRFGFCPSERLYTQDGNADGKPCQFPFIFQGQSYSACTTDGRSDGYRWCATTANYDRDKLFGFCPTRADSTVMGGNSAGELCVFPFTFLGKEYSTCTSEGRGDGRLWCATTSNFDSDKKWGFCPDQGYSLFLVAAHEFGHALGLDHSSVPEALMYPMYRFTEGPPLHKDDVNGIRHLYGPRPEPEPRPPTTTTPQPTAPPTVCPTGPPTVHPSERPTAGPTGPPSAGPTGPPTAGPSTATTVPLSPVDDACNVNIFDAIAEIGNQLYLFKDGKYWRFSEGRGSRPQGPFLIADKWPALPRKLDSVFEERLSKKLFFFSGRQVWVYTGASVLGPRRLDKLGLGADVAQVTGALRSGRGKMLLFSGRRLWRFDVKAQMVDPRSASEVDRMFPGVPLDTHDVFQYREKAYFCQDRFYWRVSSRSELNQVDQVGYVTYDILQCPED
Format: biochemical. The settings on record: 6 µM P218 substrate, pH 6.5, 25 min at 37°C; calculated from IC50; read-out: MMP-9 Kf. The text has this: (§1) The P218 quenched fluorescence assay (Microfluorometric Profiling Assay) is a modification of that originally described by Knight, et al., FEBS Lett. 296, 263, 1992 for a related substance and a variety of matrix metalloproteinases (MMPs) in cuvettes. The assay was run with each invention compound and the three MMPs, Mmp-3, MMP-9 and MMP-2, analyzed in parallel, adapted as follows for a 96-well microtiter plate and a Hamilton AT® workstation. P218 Fluorogenic Substrate: P218 is a synthetic substrate containing a 4-acetyl-7-methoxycoumarin (MCA) group in the N-terminal position and a 3-[2, 4-dinitrophenyl]-L-2,3-diaminopropionyl (DPA) group internally. This is a modification of a peptide reported by Knight (1992) that was used as a substrate for matrix metalloproteinases. Once the P218 peptide is cleaved (putative clip site at the Ala-Leu bond), the fluorescence of the MCA group can be detected on a fluorometer with excitation at 328 nm and emission at 393 nm. P218 is currently being produced BACHEM exclusively for Bayer. P218 has the structure: H-MCA-Pro-Lys-Pro-Leu-Ala-Leu-DPA-Ala-Arg-NH2 (MW 1332.2)
Recombinant Human Pro-MMP-9: Human pro-gelatinase B (pro-MMP-9) derived from U937 cDNA as described by Wilhelm, et al. J. Biol. Chem. 264, 17213, 1989 was expressed as the full-length form using a baculovirus protein expression system. The pro-enzyme was purified using methods previously described by Hibbs, et al. J. Biol. Chem. 260, 2493, 1984.
Activation of Pro-MMP-9: […] 20 µg/mL in 50 mM Tris at pH 7.4, 10mM CaCl2, 150 mM NaCl, and 0.005% Brij-35 (MMP-9 activation buffer) was activated by incubation with 0.5 mM p-aminophenylmercuric acetate (APMA) for 3.5 h at 37 °C. The enzyme was dialyzed against the same buffer to remove the APMA.
(§2) Hamiltion Microlab AT P!us: The MMP-Profiling Assay is performed robotically on a Hamilton MicroLab AT Plus®. The Hamilton is programmed to: (1) serially dilute up to 11 potential inhibitors automatically from a 2.5 mM stock in 100% DMSO; (2) distribute substrate followed by inhibitor into a 96 well Cytofluor plate; and (3) add a single enzyme to the plate with mixing to start the reaction. Subsequent plates for each additional enzyme are prepared automatically by beginning the program at the substrate addition point, remixing the diluted inhibitors and beginning the reaction by addition of enzyme. In this way, all MMP assays were done using the same inhibitor dilutions.
(§3) Millipore Cytofluor II. Following incubation, the plate was read on a Cytofluor II fluorometric place reader with excitation at 340 nm and emission at 395 nm with the gain set at 80.
(§4) Microfluorometric Reaction Buffer (MRB): Dilution of test compounds, enzymes, and P218 substrate for the microfluorometric assay were made in microfluorometric reaction buffer consisting of 50 mM 2-(N-morpholino)ethanesulfonic acid (MES) at pH 6.5 with 10 mM CaCl2, 150 mM NaCl, 0.005% Brij-35 and 1% DMSO.
(§5) MMP Microfluorometric Profiling Assay. The assay is done with a final substrate concentration of 6 µM P218 and approximately .5 to .8 nM MMP with variable drug concentrations. The Hamilton is programmed to serially dilute up to 11 compounds from a 2.5 mM stock (100% DMSO) to 10x the final compounds concentrations in the assay. Initially, the instrument delivers various amounts of microfluoromentric reaction buffer (MRB) to a 96 tube rack of 1 ml Marsh dilution tubes. The instrument then picks up 20 µl of inhibitor (2.5 mM) from the sample rack and mixes it with a buffer in row A of the Marsh rack, resulting in a 50 µM drug concentration. The inhibitors are then serially diluted to 10, 5, 1, .2, .05 and .01 µM. Position 1 on the sample rack contains only DMSO for the "enzyme-only" wells in the assay, which results in no inhibitor in column 1, rows A through H. The instrument then distributes 107 µl of P218 substrate (8.2 µM in MRB) to a single 96 well cytofluor microtiter plate. […]

In another test the target is T3, MMP-3 (Homo sapiens, UniProt P08254).
T3 construct: made in house; host or cells: CHO cells
T3 sequence (P08254 100-477): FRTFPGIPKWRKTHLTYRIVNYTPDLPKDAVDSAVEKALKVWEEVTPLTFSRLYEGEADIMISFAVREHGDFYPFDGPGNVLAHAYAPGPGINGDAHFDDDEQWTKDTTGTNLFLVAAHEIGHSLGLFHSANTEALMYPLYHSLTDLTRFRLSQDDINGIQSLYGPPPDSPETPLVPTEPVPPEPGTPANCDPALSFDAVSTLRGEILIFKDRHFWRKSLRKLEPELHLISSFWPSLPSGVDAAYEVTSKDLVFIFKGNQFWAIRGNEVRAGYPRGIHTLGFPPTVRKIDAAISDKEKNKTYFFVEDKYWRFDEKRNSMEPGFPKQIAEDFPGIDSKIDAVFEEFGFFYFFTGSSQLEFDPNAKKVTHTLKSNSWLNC
Format: biochemical. The note with it: 6 µM P218 substrate, pH 6.5, 25 min at 37°C; calculated from IC50; read-out: MMP-3 Kf.
From the text: as §1
Recombinant Human CHO Pro-MMP-3: Human CHO pro-stromelysin-257 (pro-MMP-3) was expressed and purified as described by Housley, et al., J. Biol. Chem. 268, 4481, 1993.
Activation of Pro-MMP-3 Pro-MMP-3 at 1.72 µM (100 µg/mL) in 5 mM Tris at pH 7.5, 5 mM CaCl2, 25 mM NaCl, and 0.005% Brij-35 (MMP-3 activation buffer) was activated by incubation with TPCK (N-tosyl-(L)-phenylalanine chloromethyl ketone) trypsin (1:100 w/w to pro-MMP-3) at 25 °C for 30 min. The reaction was stopped by addition of soybean trypsin inhibitor (SBTI: 5:1 w/w to trypsin concentration). This activation protocol results in the formation of 45 kDa active MMP-3, which still contains the C-terminal portion of the enzyme.
as §2, §3, §4, §5

With `O=C(CC(CCc1ccccc1C(=O)NCCc1ccccc1)C(=O)O)c1ccc(-c2ccc(Cl)cc2)cc1` (stereo not drawn) [Compound I, 4'-chloro-γ-oxo-α-[2-[2-[[(2-phenylethyl)amino]carbonyl]phenyl]ethyl]-[1,1'-biphenyl]-4-butanoic acid], the Ki at MMP-2 was 41.1 nM; on MMP-9 it was 173 nM; on MMP-3 it was 127 nM.

As for `O=C(CC(CCc1cccc(C(=O)N2CCOCC2)c1)C(=O)O)c1ccc(-c2ccc(Cl)cc2)cc1` (stereo not drawn) [Compound X, 4'-chloro-α-[2-[3-(4-morpholinylcarbonyl)phenyl]ethyl]-γ-oxo-[1,1'-biphenyl]-4-butanoic acid], the Ki was 26.1 nM on MMP-2, 251 nM on MMP-9 and 73.8 nM on MMP-3.

For the compound `O=C(CC(CCc1ccc(C(=O)NCCc2ccccc2)cc1)C(=O)O)c1ccc(-c2ccc(Cl)cc2)cc1` (stereo not drawn) [Compound XX, 4'-chloro-γ-oxo-α-[2-[4-[[(2-phenylethyl)amino]carbonyl]phenyl]ethyl]-[1,1'-biphenyl]-4-butanoic acid], the Ki is 446 nM on MMP-2 and 2000 nM on MMP-9.

Regarding `O=C(CC(CCc1ccc(C(=O)N2CCCCC2)cc1)C(=O)O)c1ccc(-c2ccc(Cl)cc2)cc1` (stereo not drawn) [Compound XXI, 4'-chloro-γ-oxo-α-[2-[4-(1-piperidinylcarbonyl)phenyl]ethyl]-[1,1'-Biphenyl]-4-butanoic acid], the Ki on MMP-2 was 84.1 nM; at MMP-9, 806 nM; at MMP-3 it was 242 nM.

In the case of `O=C(O)CNC(=O)c1ccccc1CCC(CC(=O)c1ccc(-c2ccc(Cl)cc2)cc1)C(=O)O` (stereo not drawn) [Compound XXIII, α-[2-[2-[[(2-carboxymethyl)amino]carbonyl]phenyl]ethyl]-4'-chloro-γ-oxo-[1,1'-biphenyl]-4-butanoic acid], the Ki is 96 nM at MMP-2, 1590 nM at MMP-9 and 259 nM at MMP-3.

Turning to `O=C(O)CCNC(=O)c1ccccc1CCC(CC(=O)c1ccc(-c2ccc(Cl)cc2)cc1)C(=O)O` (centres unmarked) [Compound XXII], the Ki on MMP-2 is 63.5 nM; at MMP-9 it was 1130 nM; at MMP-3 it was 166 nM.

Regarding `O=C(O)CNC(=O)c1ccc(CCC(CC(=O)c2ccc(-c3ccc(Cl)cc3)cc2)C(=O)O)cc1` (stereo not drawn) [Compound XXIV, α-[2-[4[[(carboxymethyl)amino]carbonyl]phenyl]ethyl]-4'-chloro-γ-oxo-[1,1'-biphenyl]-4-butanoic acid], the Ki at MMP-2 was 82.4 nM; on MMP-9 it was 915 nM; at MMP-3, 293 nM.

For `CCCCCOc1ccc(-c2ccc(C(=O)CC(CCc3cccc(C(=O)N4CCCCC4)c3)C(=O)O)cc2)cc1` (stereo not drawn) [Compound XXXI, γ-oxo-4'-(pentyloxy)-α-[2-[3-(1-piperidinylcarbonyl)phenyl]ethyl]-[1,1'-biphenyl]-4-butanoic acid], the figures for the Ki at MMP-2, on MMP-9 and on MMP-3 were 17 nM, 373 nM and 35.8 nM, respectively.

With `O=C(CC(CCc1cccc(C(=O)N2CCCCC2)c1)C(=O)O)c1ccc(-c2ccc(OCc3ccccc3)cc2)cc1` (centres unmarked) [Compound XXX], the Ki at MMP-2 is 4.44 nM; at MMP-9, 102 nM; at MMP-3 it was 12.5 nM.

As for `O=C(CC(CCc1ccccc1C(=O)NCc1ccccc1)C(=O)O)c1ccc(-c2ccc(Cl)cc2)cc1` (stereo not drawn) [III, 4'-chloro-γ-oxo-α-[2-[2-[[(phenylmethyl)amino]carbonyl]phenyl]ethyl]-[1,1'-biphenyl]-4-butanoic acid], the Ki on MMP-2 was 60.3 nM; on MMP-9 it was 475 nM; at MMP-3 it was 174 nM.

As to `O=C(CC(CCc1ccccc1C(=O)NCCCc1ccccc1)C(=O)O)c1ccc(-c2ccc(Cl)cc2)cc1` (stereo not drawn) [IV, 4'-chloro-γ-oxo-α-[2-[2-[[(3-phenylpropyl)amino]carbonyl]phenyl]ethyl]-[1,1'-biphenyl]-4-butanoic acid], the Ki on MMP-2 is 68.7 nM; at MMP-9 it was 246 nM; on MMP-3, 175 nM.

In the case of `CCOC(=O)CN(C)C(=O)c1ccccc1CCC(CC(=O)c1ccc(-c2ccc(Cl)cc2)cc1)C(=O)O` (stereo not drawn) [IX, 4'-chloro-α-[2-[2-[[(2-ethoxy-2-oxoethyl)methylamino]carbonyl]phenyl]ethyl]-γ-oxo-[1,1'-biphenyl]-4-butanoic acid], the Ki on MMP-2 is 17.5 nM; at MMP-9, 254 nM; on MMP-3 it was 43.6 nM.

For `O=C(CC(CCc1ccccc1C(=O)N1CCCCC1)C(=O)O)c1ccc(-c2ccc(Cl)cc2)cc1` (stereo not drawn) [V, 4'-chloro-γ-oxo-α-[2-[2-(1-piperidinylcarbonyl)phenyl]ethyl]-[1,1'-biphenyl]-4-butanoic acid], the Ki was 13.8 nM on MMP-2, 146 nM at MMP-9 and 54.7 nM on MMP-3.

For the compound `CC(C)CCNC(=O)c1ccccc1CCC(CC(=O)c1ccc(-c2ccc(Cl)cc2)cc1)C(=O)O` (stereo not drawn) [VI, 4'-chloro-α-[2-[2-[[(3-methylbutyl)amino]carbonyl]phenyl]ethyl]-γ-oxo-[1,1'-biphenyl]-4-butanoic acid], the Ki is 58.1 nM on MMP-2, 431 nM at MMP-9 and 214 nM on MMP-3.

Consider `CCOC(=O)CNC(=O)c1ccccc1CCC(CC(=O)c1ccc(-c2ccc(Cl)cc2)cc1)C(=O)O` (stereo not drawn) [VIII, 4'-chloro-α-[2-[2-[[(2-ethoxy-2-oxo-ethyl)amino]carbonyl]phenyl]ethyl]-γ-oxo-[1,1'-biphenyl]-4-butanoic acid], for which the Ki on MMP-2 is 56.8 nM; at MMP-9 it was 806 nM; on MMP-3 it was 165 nM.

Values taken from patent publication EP0907632B1, “INHIBITION OF MATRIX METALLOPROTEASES BY SUBSTITUTED PHENETHYL COMPOUNDS” (Bayer Corporation, priority 1996, dated 1997).
